Data from the supplement of paper PMC8149375.

Legend:
Conditions in all cases: treatment: drug alone; 5 days
769-P [1] = assay: GI50, drug alone; higher = less potent
Protocol: (§1)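 Primary HTS: 8 RCC cell lines treated with 8 doses (up to 10 uM) of each library drug alone for 5 days; viability read by CellTiter-Glo and normalised to DMSO. GI50 was fitted with XLfit (4-parameter), AUC is the area under the dose-response curve, and minimum viability is the lowest fraction of DMSO viability across doses.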

786-O [2] = assay: GI50, drug alone; higher = less potent
Protocol: as §1

A498 [3] = assay: GI50, drug alone; higher = less potent
Protocol: as §1

ACHN [4] = assay: GI50, drug alone; higher = less potent
Protocol: as §1

CAKI-1 [5] = assay: GI50, drug alone; higher = less potent
Protocol: as §1

SN12C [6] = assay: GI50, drug alone; higher = less potent
Protocol: as §1

TK-10 [7] = assay: GI50, drug alone; higher = less potent
Protocol: as §1

UO-31 [8] = assay: GI50, drug alone; higher = less potent
Protocol: as §1

769-P [9] = assay: minimum viability across doses, drug alone, relative to DMSO (fraction); higher = less growth inhibition
Protocol: as §1

786-O [10] = assay: as above
Protocol: as §1

A498 [11] = assay: as above
Protocol: as §1

ACHN [12] = assay: as above
Protocol: as §1

CAKI-1 [13] = assay: as above
Protocol: as §1

SN12C [14] = assay: as above
Protocol: as §1

TK-10 [15] = assay: as above
Protocol: as §1

UO-31 [16] = assay: as above
Protocol: as §1

769-P [17] = assay: AUC of dose-response viability curve, drug alone (arbitrary (AUC of normalised viability)); higher = less growth inhibition
Protocol: as §1

786-O [18] = assay: as above
Protocol: as §1

A498 [19] = assay: as above
Protocol: as §1

ACHN [20] = assay: as above
Protocol: as §1

CAKI-1 [21] = assay: as above
Protocol: as §1

SN12C [22] = assay: as above
Protocol: as §1

TK-10 [23] = assay: as above
Protocol: as §1

UO-31 [24] = assay: as above
Protocol: as §1

Compound | GI50, drug alone (786-O [2]) [µM] | GI50, drug alone (ACHN [4]) [µM] | GI50, drug alone (769-P [1]) [µM] | GI50, drug alone (A498 [3]) [µM] | GI50, drug alone (CAKI-1 [5]) [µM] | GI50, drug alone (SN12C [6]) [µM] | GI50, drug alone (TK-10 [7]) [µM] | GI50, drug alone (UO-31 [8]) [µM] | minimum viability across doses (769-P [9]) | minimum viability across doses (786-O [10]) | minimum viability across doses (A498 [11]) | minimum viability across doses (ACHN [12]) | minimum viability across doses (CAKI-1 [13]) | minimum viability across doses (SN12C [14]) | minimum viability across doses (TK-10 [15]) | minimum viability across doses (UO-31 [16]) | AUC of dose-response viability curve (769-P [17]) | AUC of dose-response viability curve (786-O [18]) | AUC of dose-response viability curve (A498 [19]) | AUC of dose-response viability curve (ACHN [20]) | AUC of dose-response viability curve (CAKI-1 [21]) | AUC of dose-response viability curve (SN12C [22]) | AUC of dose-response viability curve (TK-10 [23]) | AUC of dose-response viability curve (UO-31 [24])
CCCCCCCCCCCCc1ccc(S(=O)(=O)Nc2nncs2)cc1 [PHT-427] | > 10 | > 10 | > 10 | > 10 | > 10 | > 10 | > 10 | > 10 | 0.855 | 0.512 | 1.05 | 0.824 | 0.959 | 0.858 | 0.797 | 1.14 | 3.26 | 2.32 | 4.29 | 3.08 | 3.62 | 3.22 | 2.94 | 4.78
CCN1CCN(C(=O)Cc2ccc(Nc3ncc(F)c(Nc4ccc(C(=O)Nc5ccccc5Cl)cc4)n3)cc2)CC1 [Aurora A Inhibitor I] | 0.234 | 0.557 | 2.03 | > 10 | 0.98 | 5.34 | 4.41 | 9.23 | 0.0238 | 0.0582 | 0.871 | 0.062 | 0.00638 | 0.465 | 0.481 | 0.327 | 2.75 | 1.75 | 4.05 | 2.17 | 2.49 | 2.95 | 2.7 | 3.82
CC(C)c1ccccc1Cc1cc(C(=O)Nc2ccc(S(=O)(=O)c3ccccc3C(C)(C)C)cc2)c(O)c(O)c1O [TW-37] | 0.133 | 1.46 | 2.8 | > 10 | 0.926 | > 10 | 1.73 | 8.46 | 0.0442 | 0.0508 | 0.946 | 0.0989 | 0.0857 | 0.499 | 0.296 | 0.0881 | 3.12 | 1.54 | 4 | 2.48 | 2.77 | 2.97 | 2.25 | 4.07
Cc1c(NC(=O)OC[C@@H]2COCCN2)cn2ncnc(Nc3ccc4c(cnn4Cc4cccc(F)c4)c3)c12.Cl | > 10 | 4.1 | 5.19 | > 10 | > 10 | > 10 | 1.94 | > 10 | 0.368 | 0.592 | 0.861 | 0.419 | 0.573 | 0.677 | 0.234 | 0.929 | 2.92 | 3.22 | 3.52 | 2.75 | 3.17 | 3.22 | 2.53 | 4.06
CC1(COc2ccc3c(c2)ncn3-c2ccc3cccc(N4CCC(N)CC4)c3n2)COC1 | 0.538 | 2.73 | 5.05 | 3.47 | 3.2 | 2.19 | 4.88 | 1.37 | 0.283 | 0.00547 | 0.0171 | 0.0169 | 0.319 | 0.0442 | 0.16 | 0.0124 | 2.25 | 1.83 | 3.5 | 2.98 | 2.69 | 2.58 | 2.88 | 2.67
Cn1cc(-c2ccc3ncc(Cc4ccc5ncccc5c4)n3n2)cn1 [NVP-BVU972] | 0.589 | 1.32 | > 10 | 2.53 | 1.17 | 1.4 | 1.3 | 1.4 | 0.0466 | 0.00923 | 0.0174 | 0.0166 | 0.0623 | 0.0229 | 0.12 | 0.018 | 3.07 | 2.24 | 3.94 | 2.78 | 2.77 | 2.75 | 2.58 | 4.11

Now from value to compound, other results behind:

GI50, drug alone (786-O [2]) [µM] | GI50, drug alone (ACHN [4]) [µM] | Compound | GI50, drug alone (769-P [1]) [µM] | GI50, drug alone (A498 [3]) [µM] | GI50, drug alone (CAKI-1 [5]) [µM] | GI50, drug alone (SN12C [6]) [µM] | GI50, drug alone (TK-10 [7]) [µM] | GI50, drug alone (UO-31 [8]) [µM] | minimum viability across doses (769-P [9]) | minimum viability across doses (786-O [10]) | minimum viability across doses (A498 [11]) | minimum viability across doses (ACHN [12]) | minimum viability across doses (CAKI-1 [13]) | minimum viability across doses (SN12C [14]) | minimum viability across doses (TK-10 [15]) | minimum viability across doses (UO-31 [16]) | AUC of dose-response viability curve (769-P [17]) | AUC of dose-response viability curve (786-O [18]) | AUC of dose-response viability curve (A498 [19]) | AUC of dose-response viability curve (ACHN [20]) | AUC of dose-response viability curve (CAKI-1 [21]) | AUC of dose-response viability curve (SN12C [22]) | AUC of dose-response viability curve (TK-10 [23]) | AUC of dose-response viability curve (UO-31 [24])
0.465 | 2.4 | Nc1nc(Nc2ccc(S(N)(=O)=O)cc2)nn1C(=O)c1c(F)cccc1F | > 10 | > 10 | 4.58 | 4.89 | > 10 | 2.8 | 0.0485 | 0.00276 | 0.559 | 0.0118 | 0.0615 | 0.203 | 0.573 | 0.00913 | 3.08 | 1.8 | 3.39 | 2.85 | 3.13 | 2.99 | 2.77 | 3.19
> 10 | 1.4 | CN1CCN(c2cccc(Nc3nc4c(-c5ccc(S(C)(=O)=O)cc5)cccn4n3)c2)CC1 | > 10 | > 10 | 2.31 | > 10 | 3.53 | > 10 | 0.782 | 0.585 | 1.13 | 0.293 | 0.244 | 0.599 | 0.298 | 0.707 | 3.49 | 3.18 | 4.91 | 2.65 | 2.85 | 3.13 | 2.82 | 4.6
1.49 | 3.02 | CNC(=O)c1c(F)cccc1Nc1nc(Nc2cc3c(cc2OC)CCN3C(=O)CN(C)C)nc2[nH]ccc12 | 2.4 | 8.55 | 3.46 | 4.02 | 3.14 | 8.35 | 0.016 | 0.00507 | 0.0165 | 0.00292 | 0.00594 | 0.00561 | 0.142 | 0.0181 | 2.73 | 2.4 | 4.86 | 2.82 | 2.94 | 2.88 | 2.69 | 4.52
